The results in this text go back to US20130245355A1, “3-HETARYL-SUBSTITUTED PYRROLO[2,3 B]PYRIDINE DERIVATIVES AS PDK1 INHIBITORS” (MERCK PATENT GMBH, priority 2010, published 2013).

Assay [1] concerns the target T1, PDK1 (Homo sapiens, UniProt O15530).
T1 construct: endogenous in cells; host or cells: PC3 cells
T1 sequence (O15530 1-556): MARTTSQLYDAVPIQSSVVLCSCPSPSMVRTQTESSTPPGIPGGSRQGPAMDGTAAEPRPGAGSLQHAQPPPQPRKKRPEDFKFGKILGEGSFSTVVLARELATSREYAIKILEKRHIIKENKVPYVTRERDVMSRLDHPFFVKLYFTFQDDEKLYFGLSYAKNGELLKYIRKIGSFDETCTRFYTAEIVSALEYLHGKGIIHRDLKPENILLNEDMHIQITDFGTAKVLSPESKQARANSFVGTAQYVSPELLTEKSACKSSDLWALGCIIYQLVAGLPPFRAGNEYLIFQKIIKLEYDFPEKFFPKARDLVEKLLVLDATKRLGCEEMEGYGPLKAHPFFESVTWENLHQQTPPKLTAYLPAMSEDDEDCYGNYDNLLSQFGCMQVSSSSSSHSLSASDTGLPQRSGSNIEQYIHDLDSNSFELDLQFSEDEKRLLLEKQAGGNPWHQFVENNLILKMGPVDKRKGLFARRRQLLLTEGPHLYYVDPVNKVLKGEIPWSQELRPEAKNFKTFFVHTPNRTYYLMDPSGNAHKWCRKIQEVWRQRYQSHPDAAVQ
The experiment in a line: Cellular testing of PDK1 kinase inhibitors in PC3 cells (Luminex, phospho-T308-PKB). Format: cell-based. To be noted: 30 min, serum-free. In short, it runs like this:
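PC3 cells were treated 30 min serum-free with 7-concentration compound series, lysed, and phospho-T308-PKB measured by Luminex bead assay (anti-total PKB capture, phospho-T308 detection). Blank was 10 μM staurosporine; maximum was 0.3% DMSO; IC50 derived from percent of control.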

For assay [2], the target named is T2, PDK1 (Homo sapiens, UniProt O15530).
T2 construct: His6 (N)
T2 sequence (O15530 51-556 limits assumed): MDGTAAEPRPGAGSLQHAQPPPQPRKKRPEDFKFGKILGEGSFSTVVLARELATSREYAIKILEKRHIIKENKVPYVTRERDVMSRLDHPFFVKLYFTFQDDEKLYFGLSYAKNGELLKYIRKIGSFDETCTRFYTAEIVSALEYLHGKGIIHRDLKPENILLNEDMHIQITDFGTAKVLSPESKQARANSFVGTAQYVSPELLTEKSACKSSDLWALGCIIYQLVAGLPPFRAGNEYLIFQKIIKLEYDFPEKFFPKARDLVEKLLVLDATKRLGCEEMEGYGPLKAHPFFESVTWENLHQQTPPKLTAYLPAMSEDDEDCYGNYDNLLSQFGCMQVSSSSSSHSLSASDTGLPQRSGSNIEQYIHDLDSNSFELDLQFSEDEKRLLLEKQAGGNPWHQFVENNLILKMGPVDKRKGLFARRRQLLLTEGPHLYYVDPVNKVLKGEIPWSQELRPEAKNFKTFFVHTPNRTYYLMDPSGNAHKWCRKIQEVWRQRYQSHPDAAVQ
The experiment in a line: Test for the inhibition of PDK1 (flashplate, 33P-ATP). To be noted: His6-PDK1 (1-50) 3.4 nM, 4 μM ATP, 30° C., 60 min; read-out: IC50 [PDK1] biochemical. In short, it runs like this: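 His6-PDK1 (1-50) (3.4 nM) with biotinylated peptide substrate (400 nM) and 4 μM ATP plus ^33P-ATP, 60 min at 30° C; incorporated radioactivity counted. Blank from 100 nM staurosporin subtracted, activity expressed as % of compound-free control, IC50 derived from dilution series.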

A word on the IC50: it is the midpoint of a concentration-inhibition curve.

Take `CN[C@@H](c1ccccc1)c1nnc(-c2c[nH]c3ncc(-c4cnn(C)c4)cc23)o1` [A116]: the IC50 against PDK1 [1] was in the range of 1000 to 10000 nM; at PDK1 [2], 0.5 to 1000 nM.

As for `Cn1cc(-c2cnc3[nH]cc(-c4cc(C(C)(O)c5ccccc5F)on4)c3c2)cn1` (stereo not drawn) [A6], the IC50 on PDK1 [1] and on PDK1 [2] was 0.5 to 1000 nM throughout.

`Cn1cc(-c2cnc3[nH]cc(-c4cc(C(C)(O)c5cccc(F)c5)on4)c3c2)cn1` (stereo not drawn) [A36]: the IC50 against PDK1 [1] and on PDK1 [2] was 0.5 to 1000 nM each time.

`Cn1cc(-c2cnc3[nH]cc(-c4nnc(C(O)c5ccc(F)cc5)o4)c3c2)cn1` (stereo not drawn) [A57, (4-fluorophenyl)-{5-[5-(1-methyl-1H-pyrazol-4-yl)-1H-pyrrolo[2,3-b]pyridin-3-yl]-1,3,4-oxadiazol-2-yl}methanol]: the IC50 on PDK1 [1] was in the range of 1000 to 10000 nM; at PDK1 [2] it was 0.5 to 1000 nM.

With `Cn1cc(-c2cnc3[nH]cc(-c4nnc(C(N)c5ccccc5Cl)o4)c3c2)cn1` (stereo not drawn) [A118], the IC50 at PDK1 [1] and on PDK1 [2] was 0.5 to 1000 nM in each case.

As for `Cn1cc(-c2cnc3[nH]cc(-c4noc(C(C)(O)c5cccc(F)c5)n4)c3c2)cn1` (stereo not drawn) [A51], the figures for the IC50 against PDK1 [1] and on PDK1 [2] were 1000 to 10000 nM and 0.5 to 1000 nM, respectively.

For the molecule `Cn1cc(-c2cnc3[nH]cc(-c4nnc(C(O)c5ccccc5F)o4)c3c2)cn1` (stereo not drawn) [A43], the figures for the IC50 against PDK1 [1] and at PDK1 [2] were 1000 to 10000 nM and 0.5 to 1000 nM, respectively.

Regarding `Cn1cc(-c2cnc3[nH]cc(-c4cc(C(C)(O)c5cccc(F)c5F)[nH]n4)c3c2)cn1` (stereo not drawn) [A64], the IC50 against PDK1 [1] and on PDK1 [2] was 0.5 to 1000 nM throughout.

`Cn1cc(-c2cnc3[nH]cc(-c4cc([C@](C)(O)c5ccccc5)on4)c3c2)cn1` (single isomer, unassigned) [A35]: the half-inhibitory concentration (IC50) is 1000 to 10000 nM against PDK1 [1] and 0.5 to 1000 nM at PDK1 [2].

As for `Cn1cc(-c2cnc3[nH]cc(-c4n[nH]c(C(C)(O)c5ccccc5F)n4)c3c2)cn1` (stereo not drawn) [A49], the IC50 was 1000 to 10000 nM at PDK1 [1] and 0.5 to 1000 nM at PDK1 [2].

On to `Cn1cc(-c2cnc3[nH]cc(-c4nnc(C(O)c5ccc(Cl)cc5)o4)c3c2)cn1` (stereo not drawn) [A60], for which the IC50 on PDK1 [1] and at PDK1 [2] was 1000 to 10000 nM each time.

Take `Cn1cc(-c2cnc3[nH]cc(-c4nnc(C5(c6ccc(Cl)nc6)CC5)o4)c3c2)cn1` [A123, 3-{5-[1-(6-chloropyridin-3-yl)cyclopropyl]-1,3,4-oxadiazol-2-yl}-5-(1-methyl-1H-pyrazol-4-yl)-1H-pyrrolo[2,3-b]pyridine]: the IC50 against PDK1 [1] and at PDK1 [2] was 1000 to 10000 nM each time.

`Cn1cc(-c2cnc3[nH]cc(-c4nc(C(C)(O)c5cccc(F)c5F)no4)c3c2)cn1` (stereo not drawn) [A78]: the IC50 at PDK1 [1] and on PDK1 [2] was 0.5 to 1000 nM in each case.

As to `Cn1cc(-c2cnc3[nH]cc(-c4nnc(C(O)c5ccccc5)o4)c3c2)cn1` (stereo not drawn) [A29], the 50% inhibitory concentration (IC50) was in the range of 1000 to 10000 nM against PDK1 [1] and 0.5 to 1000 nM at PDK1 [2].

With `Cn1cc(-c2cnc3[nH]cc(-c4nnc(C(O)c5cccc(Cl)c5Cl)o4)c3c2)cn1` (stereo not drawn) [A65], the IC50 against PDK1 [1] and on PDK1 [2] was 0.5 to 1000 nM throughout.

As for `C=C(c1cc(-c2c[nH]c3ncc(-c4cnn(C)c4)cc23)n[nH]1)c1ccccc1F` [A28], the IC50 is 1000 to 10000 nM against PDK1 [1] and 0.5 to 1000 nM at PDK1 [2].

As to `Cn1cc(-c2cnc3[nH]cc(-c4nc(C(C)(O)c5ccccc5)no4)c3c2)cn1` (stereo not drawn) [A67], the figures for the IC50 at PDK1 [1] and at PDK1 [2] were 0.5 to 1000 nM and 1000 to 10000 nM, respectively.

Turning to `Cn1cc(-c2cnc3[nH]cc(-c4n[nH]c(C5(c6ccc(Cl)nc6)CC5)n4)c3c2)cn1` [A122, 3-{5-[1-(6-chloropyridin-3-yl)cyclopropyl]-1H-1,2,4-triazol-3-yl}-5-(1-methyl-1H-pyrazol-4-yl)-1H-pyrrolo[2,3-b]pyridine], the IC50 at PDK1 [1] and at PDK1 [2] was 1000 to 10000 nM throughout.

As to `Cn1cc(-c2cnc3[nH]cc(-c4cc(C(C)(O)c5ccccc5F)[nH]n4)c3c2)cn1` (stereo not drawn) [A18], the results for the IC50 against PDK1 [1] and at PDK1 [2] were 1000 to 10000 nM and 0.5 to 1000 nM, respectively.

Consider `COC(=O)c1ccc(C(O)c2nnc(-c3c[nH]c4ncc(-c5cnn(C)c5)cc34)o2)c(Cl)c1` (stereo not drawn) [A128, methyl 3-chloro-4-(hydroxy-{5-[5-(1-methyl-1H-pyrazol-4-yl)-1H-pyrrolo[2,3-b]-pyridin-3-yl]-1,3,4-oxadiazol-2-yl}methyl)benzoate], for which the IC50 at PDK1 [1] and on PDK1 [2] was 1000 to 10000 nM each time.

With `Cn1cc(-c2cnc3[nH]cc(-c4nc(C(C)(O)c5ccccc5Cl)no4)c3c2)cn1` (stereo not drawn) [A79], the IC50 was 0.5 to 1000 nM on PDK1 [1] and 1000 to 10000 nM at PDK1 [2].
